Patent publication US20130045484A1, “METHODS AND KITS FOR DETERMINING THE TOXICITY OF AN AGENT” (priority 2010, published 2013)
Structures can show the parent of a compound that is named as a salt. Where two headings read alike, the source gives them in different places.

Columns and labels:
HEK 293 cells = assay: Firefly Luciferase Bioluminescent ATP cell viability assay; assay type: cell-based, human; conditions: for ATP response (cytotoxicity): phenformin 250 μg/ml, MMS 50 μg/ml, doxorubicin 1 μg/ml
Method: The assay was carried out in 96-well cluster plates on the same cell containing sample(s) as the p53R2 Renilla Luciferase Reporter Gene Assay. Traditionally bioluminescent ATP quantification methods use firefly luciferase to quantify ATP in the presence of inorganic magnesium ions and the substrate luciferin. The ATP assay described here uses a recombinant luciferase from a gene isolated from the Pennsylvania Firefly (Photuris pennsylvania). Following Renilla luciferase gene reporter activity quantification, firefly luciferase activity was measured in each well using the Cell-Titer Glo Luciferase ATP Quantification Assay Kit in accordance with the kit manufacturer's instructions. Briefly, the enzyme substrate was equilibrated to room temperature and reconstituted with the assay buffer. 100 μl of this reagent was added to cells which quenched the Renilla luciferase reaction and liberated the cellular contents by cellular lysis. […] It is based on the quantitative measurement of ATP which indicates the absolute number of metabolically active cells.

p53R2 (RE) = test system: p53R2 (RE)
Method: Constructs were transiently transfected into human HEK 293 cells using a lipid-based commercially available reagent (FuGENE HD Transfection Reagent, Roche Applied Science). Transfections were carried out following the manufacturer's instructions. Briefly, freshly passaged cells (20,000/well) were dispensed into Greiner Bio-One tissue-culture treated μ-clear (clear base), white, sterile, 96-well cluster plates and incubated overnight (37° C., 95% humidity, 5% CO2) in antibiotic-free media. Cells were transfected (100 ng DNA/well; 5 μl transfection complex/well) with pGL4.70 [hRLuc], p53R2 (RE) pGL4.70 [hRLuc], pGL4.70 MinP [hRLuc], or p53R2 (RE) pGL4.70 MinP [hRLuc] for 24 h, in antibiotic-free media. Several FuGENE HD Transfection Reagent: DNA ratios (3:2-8:2 in the final complex) were evaluated in order to determine the optimal level of transient transfection.
Renilla luciferase activity was measured using the ViviRen Luciferase Live Cell Substrate following the Manufacturer's instructions. Briefly, the ViviRen substrate (60 mM; 20 μl) was diluted 1:50 with complete EMEM at room temperature. 10 μl was added to each culture well (to give a final concentration of 60 μM in each well containing cells to be tested). Microtitre plates were incubated for two minutes at room temperature before measuring luminescence on a Tecan Ultra (Tecan Corporation) in luminescence mode, integrating for 100 ms. Alternatively luminescence can be measured on a LEADseeker multi-modality instrument in luminescence mode (GE Healthcare).

caspase-3 = assay: Caspase-3 (apoptosis) Assay; assay type: cell-based, human; conditions: for Mean Apoptotic Index: mean Caspase-3 response (405 nm) ÷ mean ATP response × 10^8, mannitol 1 mg/ml, doxorubicin 1 μg/ml, MMS 50 μg/ml, phenformin 250 μg/ml
Method: The assay was carried out using the same cell containing sample(s) as the p53R2 Renilla Luciferase Reporter Gene, the Firefly Luciferase Bioluminescent ATP and the superoxide assays. Once again, all of the assays were performed in 96-well cluster plates. Activation of caspase-3 plays a central role in the execution-phase of apoptosis. Thus, the caspase-3 assay will provide useful information on the mechanism of cellular toxicity. Following SOD measurement, caspase-3 was measured on each cellular sample in accordance with the Caspase-3 Assay Kit manufacturer's instructions. Briefly, the colorimetric assay is based on the hydrolysis of the peptide substrate acetyl-Asp-Glu-Val-Asp p-nitroanilide (Ac-DEVD-pNA) by caspase-3, resulting in the release of the p-nitroaniline (pNA) moiety which can be measured at 405 nm.
For the assay, cellular sample lysates (5 μl) were added to a reaction mixture containing caspase-3 substrate (Ac-DEVD-pNA, 95 μl) and samples were incubated for 2 h at 37° C. Absorbance was measured at 405 nm using a 96-well microtitre plate reader.

Salmonella = conditions: McCann et al., 1975, PNAS 72, 5135-5139; cited from earlier work
superoxide dismutase = assay: Superoxide Dismutase (SOD) (Oxidative Stress) Assay; assay type: cell-based, human; conditions: mean superoxide dismutase response (450 nm) ÷ mean ATP response × 10^7; HEK 293; mannitol 1 mg/ml, doxorubicin 1 μg/ml, MMS 50 μg/ml, phenformin 250 μg/ml
Method: The assay was conducted using the same cell containing sample(s) as the p53R2 Renilla Luciferase Reporter Gene and the Firefly Luciferase Bioluminescent ATP assays. The assays were performed in 96-well cluster plates.
On completion of ATP quantification, SOD was measured on each cellular sample following the SOD assay kit manufacturer's instructions. Briefly, the assay method is based on a water-soluble tetrazolium salt, WST-1 (2-(4-Iodophenyl)-3-(4-nitrophenyl)-5-(2,4-disulfophenyl)-2H-tetrazolium, monosodium salt) that produces a colourimetric formazan dye upon reduction with a superoxide anion which can be measured spectrophotometrically. The rate of the reduction with the superoxide anion is linearly related to […] xanthine oxidase (XO) activity. Thus, cellular samples (20 μl) were added to a reaction mixture (220 μl) containing WST-1 and XO and incubated for 20 mins at 37° C. Absorbance was measured at 450 nm using a 96-well microtitre plate reader.

[1] = FIG. 16, apoptosis values alone, HEK 293

| SMILES | ATP response (cytotoxicity) (HEK 293 cells; FIG. 10e, 8:2 transfection) | ATP response (cytotoxicity) (HEK 293 cells; FIG. 11e, 7:2 transfection) | cytotoxicity based upon ATP levels (HEK 293 cells; FIGS. 10 and 11) | induction of Renilla luciferase (p53R2 (RE)) | caspase 3 activities (caspase-3; [1]) | Mean Apoptotic Index (caspase-3; HEK 293) | genotoxicity characterization (Salmonella) | Mean Stress Index (superoxide dismutase) | cytotoxicity based upon ATP levels (HEK 293 cells) | caspase 3 activities (caspase-3) |
| --- | --- | --- | --- | --- | --- | --- | --- | --- | --- | --- |
| COc1cccc2c1C(=O)c1c(O)c3c(c(O)c1C2=O)C[C@@](O)(C(=O)CO)C[C@@H]3O[C@H]1C[C@H](N)[C@H](O)[C@H](C)O1 [Doxorubicin, doxorubicin hydrochloride] | no reduction | no reduction | not cytotoxic | significant induction | comparable | 3.43 | highly | 0.96 | – | – |
| OC[C@@H](O)[C@@H](O)[C@H](O)[C@H](O)CO [Mannitol, mannitol] | – | – | – | no induction | – | 1.04 | – | 1.22 | – | – |
| COS(C)(=O)=O [Methylmethane sulfonate, methylmethane sulfonate] | – | – | – | less induction | – | – | moderately | – | not cytotoxic | comparable |
| [H]/N=C(/N)N/C(=N/[H])NCCc1ccccc1 [Phenformin, phenformin hydrochloride] | – | – | – | no induction | comparable | – | – | – | – | – |
